Measurements from PMC11768359, “2-Aminothiophene Derivatives—New Drug Candidates Against Leishmaniasis: Drug Design, Synthesis, Pharmacomodulation, and Antileishmanial Activity” (Pharmaceuticals, 2025).
Where “and” joins values, the source holds several entries; their conditions need not be identical. Equal entries are not always repeated. Where two headings read alike, the source gives them in different places.

Key:
[1] = test system: promastigotes of L. amazonensis; assay: Growth inhibition of promastigote forms of L. amazonensis (MTT); assay type: cell-based, Leishmania amazonensis; details: 72 h, 26 °C
Procedure: (§1) The in vitro tests utilized Leishmania amazonensis parasites (IFLA/BR/67/PH8). These leishmania cell lines were obtained from Oswaldo Cruz Foundation (FIOCRUZ)/Brazil. The promastigote forms were cultivated in Schneider’s insect medium at 26 °C in a biological oxygen demand (BOD) incubator. Schneider’s insect medium was supplemented with 20% fetal bovine serum (FBS) and 1% penicillin (100 U/mL) and streptomycin (µg/mL) (complete Schneider). Next, we differentiated them from promastigote forms by changing the conditions to Schneider’s insect medium supplemented with 5% FBS, pH 4.6, and a temperature of 32 °C to obtain axenic amastigote forms of L. amazonensis. Meanwhile, RAW 264.7 macrophages were cultured in […] cell culture flasks using DMEM medium supplemented with 10% FBS, 1% penicillin 100 U/mL, and 100 μg/mL streptomycin (complete DMEM) and incubated at 37 °C and 5% CO2.
Parasite growth inhibition was evaluated using the methodology described by Rodrigues et al. (2015). Cultures of logarithmically growing promastigote and axenic amastigote forms (1 × 10^6 parasites/mL) were incubated in 96-well plates containing 100 µL of supplemented Schneider’s medium in triplicate. Serial concentrations of 2-amino-thiophene and 2-amino-selenophene derivatives (10.00–0.156 μM) and the reference drugs meglumine antimoniate (500–40,000 μg/mL), amphoterecinB (0.1–2 μM), and pentamidine (3.12–100 µM) were added. BNP was used as a negative control. The cultures were incubated in a biological oxygen demand oven (model Eletrolab EL202, São Paulo, Brazil) at 26 °C for promastigotes and 32 °C for axenic amastigotes for 72 h. Then, 10 μL of MTT (5 mg/mL) was added to each well to colorimetrically evaluate growth inhibition. The plate was subsequently incubated for a further 4 h, followed by adding 50 μL of 10% sodium dodecyl sulfate solution for […] before the optical density of the culture was read on a microplate spectrophotometer reader. The reading was taken at the test and reference wavelengths of 540 and 620 nm using a microplate spectrophotometer. The negative control consisted of 0.2% […] with BNP, considered to be 100% viable.

[2] = test system: RAW 264.7 macrophages; assay: Cytotoxicity in macrophages (MTT); assay type: cell-based; details: 48 h
Procedure: as §1
First, 100 μL DMEM medium complete with 1 × 10^6 macrophages (RAW 264.7) was added to each well of a 96-well plate. RAW 264.7 macrophages were obtain from ATCC: code TIB-71^TM. The plate was placed in an incubator (37 °C, 5% CO2) (Sanyo, model COM-15A, Sanyo Electric Co., Osaka, Japan) for 4 h to promote cell adhesion. After this period, two washes were conducted with previously heated DMEM medium (37 °C) to remove non-adhered cells. 2-amino-thiophene and 2-amino-selenophene derivatives were added to wells at serial concentrations of 400 to 25 µM and then incubated for 48 h. Next, 10 μL of MTT at a […] of 5 mg/mL were added to each well and incubated for 4 h. The plate was then shaken for 30 min and read at the test and reference wavelengths of 550 and 620 nm, respectively, in a plate reader. DMEM medium supplemented with 0.5% DMSO was used as a negative control and considered as 100% macrophage viability. The selectivity index for each treatment was calculated as the ratio between the concentration of cytotoxicity of RAW 264.7 macrophages (CC50) and the 50% inhibitory concentration (IC50) or effective concentration (EC50), as measured for the different evolutionary forms of L. amazonensis.

[3] = test system: L. amazonensis; details: Swiss mice, oral, 50 and 200 mg/kg, 7 weeks; versus meglumine antimoniate i.p. 100 mg/kg; cited from earlier work
[4] = test system: promastigotes of L. amazonensis; details: L. amazonensis promastigotes; previously published; read-out: IC50 Promastigotes; cited from earlier work
[5] = test system: axenic amastigotes of L. amazonensis; details: L. amazonensis amastigotes, cited from earlier work

| Compound | IC50 [1] | IC50 ([1]; listed as Anfotericina B) [nM] | CC50 [2] | CC50 ([2]; listed as Anfotericina B) [nM] | paw lesion size and parasite load in the reservoirs [3] | IC50 [4] | IC50 ([5]; previously published, read-out: IC50 Amastigotes) [nM] | EC50 ([5]; read-out: EC50 against amastigotes) [nM] |
| --- | --- | --- | --- | --- | --- | --- | --- | --- |
| C[C@@H]1[C@H](O)[C@@H](C)/C=C/C=C/C=C/C=C/C=C/C=C/C=C/[C@H](O[C@@H]2O[C@H](C)[C@@H](O)[C@H](N)[C@@H]2O)C[C@@H]2O[C@](O)(C[C@@H](O)C[C@@H](O)[C@H](O)CC[C@@H](O)C[C@@H](O)CC(=O)O[C@H]1C)C[C@H](O)[C@H]2C(=O)O [Amphotericin B, reference compound] | 170 nM and 300 nM | 360 | 180 nM and 300 nM | 380 | – | – | – | – |
| N#Cc1c(/N=C/c2c[nH]c3ccc(Br)cc23)sc2c1CCCC2 [SB-83] | – | – | – | – | more effective than meglumine antimoniate | 3300 nM and 3370 nM | 18500 | 18500 |
